These are literature values, as cited in US6368613B1, “Use of fluorocarbons for diagnosis and treatment of articular disorders” (Alliance Pharmaceutical Corp., priority 1996, dated 2002).

SMILES strings stand for the structures. Marks after values point to notes of the source that are not given here.

The conditions of the first data set: in octanol/pH 7.4 isotonic phosphate buffer at 37° C. (marked a).
For the compound `CCc1cc2c(s1)N(C)C(=O)CN=C2c1ccccc1Cl` [clotiazepam], the “Log Po/w” value is 3.49^a and the Po/w is on record as 3.06 × 10^3.
Regarding `OC(CCN1CCCCC1)(c1ccccc1)C1CCCCC1` (centres unmarked) [trihexyphenidyl], the “Log Po/w” value is 3.17^a and the Po/w is reported as 1.47 × 10^3.
For the compound `CC(CN1c2ccccc2Sc2ccccc21)N(C)C` (centres unmarked) [promethazine], the “Log Po/w” value was 3.10^a and the Po/w is listed as 1.27 × 10^3.
As to `CN(C)CCCN1c2ccccc2CCc2ccc(Cl)cc21` [clomipramine], the “Log Po/w” value is reported as 3.58^a and the Po/w is given as 3.80 × 10^3.
In the case of `CCCCCC(=O)OCCOCn1cnc2c(=O)[nH]c(N)nc21` [hexanoyl acyclovir], the Po/w was 8.58.
As for `CCCCC(=O)OCCOCn1cnc2c(=O)[nH]c(N)nc21` [valeryl acyclovir], the Po/w was 2.01.
On to `CC(C)=CCN1CCC2(C)c3cc(O)ccc3CC1C2C` (centres unmarked) [pentazocin], for which the “Log Po/w” value is given as 2.18^a and the Po/w is on record as 150.

The same data set, now with this note: octanol/water partition coefficient.
Regarding `CCCCNc1ccc(C(=O)OCCN(C)C)cc1` [tetracaine], the “Log Po/w” value is on record as 1.90 and the Po/w is given as 79.4.
In the case of `FC(F)(F)C(Cl)Br` (centres unmarked) [halothane], the “Log Po/w” value is 2.30 and the Po/w is listed as 2.00 × 10^2.
For `COc1ccc(C(=O)CC(=O)c2ccc(C(C)(C)C)cc2)cc1` [H-parsol 1789, parsol 1789], the “Log Po/w” value is 6.7 and the Po/w is given as 5.0 × 10^6.
Regarding `CCCCC(CC)COC(=O)c1ccc(N(C)C)cc1` (centres unmarked) [C-padimate-o, padimate-o], the “Log Po/w” value is on record as 6.6 and the Po/w was 3.98 × 10^6.
`CCCCCCCCCCCC(=O)N1CCCCCC1` [C-hexamethylenelauramide, hexamethylenelauramide]: the “Log Po/w” value is 7.3 and the Po/w is 2.00 × 10^7.
For the compound `CC/C(=C(/CC)c1ccc(O)cc1)c1ccc(O)cc1` [H -diethylstilbesterol, diethylstilbesterol], the “Log Po/w” value is given as 5.1 and the Po/w is 1.26 × 10^5.
`CCCCN1CCCCC1C(=O)Nc1c(C)cccc1C` (centres unmarked) [bupivacaine]: the “Log Po/w” value is recorded as 1.45 and the Po/w is 28.2.
In the case of `C[C@]12CC[C@H]3[C@@H](CCC4=CC(=O)CC[C@@]43C)[C@@H]1CC[C@@H]2O` [C-testosterone, testosterone], the “Log Po/w” value is listed as 3.3 and the Po/w was 2.00 × 10^3.
Turning to `CC(=O)[C@@]1(O)CC[C@H]2[C@@H]3C[C@H](C)C4=CC(=O)C=C[C@]4(C)[C@@]3(F)[C@@H](O)C[C@@]21C` [H -fluorornetholone, fluorornetholone], the “Log Po/w” value is 2.1 and the Po/w is reported as 1.26 × 10^2.
As for `c1ccc2cc3ccccc3cc2c1` [C-anthracene, anthracene], the “Log Po/w” value is 4.5 and the Po/w is on record as 3.16 × 10^4.
`O=C1CN=C(c2ccccc2)c2cc([N+](=O)[O-])ccc2N1` [nitrazepam]: the “Log Po/w” value is on record as 2.21 and the Po/w is reported as 162.
As to `Clc1cccc(Cl)c1N=C1NCCN1` [H-clonidine, clonidine], the “Log Po/w” value is listed as 1.4 and the Po/w is 25.1.

Still in this data set, the particulars now being: pH 7.4.
As to `CCCCCC(=O)OCCOCn1cnc2c(=O)[nH]c(N)nc21` [hexanoyl acyclovir], the “Log Po/w” value is reported as 0.93^a.
Take `CCCCC(=O)OCCOCn1cnc2c(=O)[nH]c(N)nc21` [valeryl acyclovir]: the “Log Po/w” value is on record as 0.30^a.
